These results are taken from patent publication US9156829B2, “Cycloalkyl and heterocycloalkyl compounds as orexin receptor antagonists” (Takeda Pharmaceutical Company Limited, priority 2014, dated 2015).

The target of one assay is human orexin receptor 2 (Homo sapiens (Human), UniProt O43614). Put plainly: Orexin antagonist activity, intracellular calcium FLIPR assay, RBL-2H3 cells expressing human orexin receptor 2. To be noted: RBL-2H3 cells stably expressing human orexin receptor 2; orexin-A at approx. 80% maximal response; compound added 15 minutes before; read-out: Human Orexin2R IC50. The assay is classed as cell-based.
Chain of human orexin receptor 2 (O43614 whole entry): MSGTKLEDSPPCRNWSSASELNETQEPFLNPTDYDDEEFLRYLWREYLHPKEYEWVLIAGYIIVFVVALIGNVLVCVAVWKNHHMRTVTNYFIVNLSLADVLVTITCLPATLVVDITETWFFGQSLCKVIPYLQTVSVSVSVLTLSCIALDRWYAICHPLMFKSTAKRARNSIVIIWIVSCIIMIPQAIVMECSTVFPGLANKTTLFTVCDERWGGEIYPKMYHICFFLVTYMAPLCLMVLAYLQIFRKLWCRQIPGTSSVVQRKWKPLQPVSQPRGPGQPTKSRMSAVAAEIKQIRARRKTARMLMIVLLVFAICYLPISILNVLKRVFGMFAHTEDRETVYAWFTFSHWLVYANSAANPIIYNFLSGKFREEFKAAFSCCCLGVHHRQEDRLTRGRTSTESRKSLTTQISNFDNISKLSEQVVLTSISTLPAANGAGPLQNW

Another assay deals with human orexin receptor 1 (Homo sapiens (Human), UniProt O43613). The assay is described as follows: Orexin antagonist activity, intracellular calcium FLIPR assay, RBL-2H3 cells expressing human orexin receptor 1. The following applies: RBL-2H3 cells stably expressing human orexin receptor 1; orexin-A at approx. 80% maximal response; compound added 15 minutes before; read-out: Human Orexin1R IC50. The assay is classed as cell-based.
Chain of human orexin receptor 1 (O43613 whole entry): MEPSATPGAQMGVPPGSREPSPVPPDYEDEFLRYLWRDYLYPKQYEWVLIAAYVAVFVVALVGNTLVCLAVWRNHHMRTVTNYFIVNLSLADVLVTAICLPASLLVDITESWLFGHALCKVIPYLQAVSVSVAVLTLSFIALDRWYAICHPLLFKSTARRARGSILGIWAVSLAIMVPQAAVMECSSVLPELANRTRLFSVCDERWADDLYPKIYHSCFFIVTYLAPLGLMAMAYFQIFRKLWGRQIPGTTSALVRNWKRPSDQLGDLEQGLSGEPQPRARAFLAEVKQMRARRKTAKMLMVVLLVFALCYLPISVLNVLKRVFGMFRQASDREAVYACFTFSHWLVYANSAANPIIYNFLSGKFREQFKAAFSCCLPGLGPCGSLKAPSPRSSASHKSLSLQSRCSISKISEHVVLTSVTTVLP

Some results are limits rather than exact numbers.

A word on the IC50: it is the concentration needed to halve the response being measured. As to `O=C(N[C@H]1CCC[C@@H]1Nc1cnc(C(F)(F)F)cn1)c1c(-n2nccn2)ccc(F)c1F` [Example 56, 2,3-Difluoro-6-(2H-1,2,3-triazol-2-yl)-N-[(1S,2S)-2-{[5-(trifluoromethyl)pyrazin-2-yl]amino}cyclopentyl]benzamide], the half-inhibitory concentration (IC50) at human orexin receptor 2 is more than 10000 nM; on human orexin receptor 1, 166 nM.
For `O=C(N[C@H]1CCC[C@@H]1Nc1cnc(C(F)(F)F)cn1)c1cc(C2CC2)ccc1-n1nccn1` [Example 57, 5-Cyclopropyl-2-(2H-1,2,3-triazol-2-yl)-N-[(1S,2S)-2-{[5-(trifluoromethyl)pyrazin-2-yl]amino}cyclopentyl]benzamide], in that order: more than 10000 nM and 38 nM.
For `O=C(N[C@H]1CCC[C@@H]1Nc1cnc(C(F)(F)F)cn1)c1ncccc1OC(F)(F)F` [Example 58, 3-(Trifluoromethoxy)-N-[(1S,2S)-2-{[5-(trifluoromethyl)pyrazin-2-yl]amino}cyclopentyl]pyridine-2-carboxamide], the IC50 on human orexin receptor 2 was more than 10000 nM; on human orexin receptor 1, 934 nM.
Consider `O=C(N[C@H]1CCC[C@@H]1Nc1cnc(C(F)(F)F)cn1)c1cc(Cl)ccc1-n1cccn1` [Example 59, 5-Chloro-2-(1H-pyrazol-1-yl)-N-[(1S,2S)-2-{[5-(trifluoromethyl)pyrazin-2-yl]amino}cyclopentyl]benzamide], for which the IC50 at human orexin receptor 2 is more than 10000 nM; at human orexin receptor 1, 161 nM.
For `CCOc1cccnc1C(=O)N[C@H]1CCC[C@@H]1Nc1cnc(C(F)(F)F)cn1` [Example 60, 3-Ethoxy-N-[(1S,2S)-2-{[5-(trifluoromethyl)pyrazin-2-yl]amino}cyclopentyl]pyridine-2-carboxamide] the same measures were more than 10000 nM and 852 nM.
For `O=C(N[C@H]1CCC[C@@H]1Nc1cnc(C(F)(F)F)cn1)c1cc(F)cc(F)c1-n1nccn1` [Example 61, 3,5-Difluoro-2-(2H-1,2,3-triazol-2-yl)-N-[(1S,2S)-2-{[5-(trifluoromethyl)pyrazin-2-yl]amino}cyclopentyl]benzamide] the same measures were more than 10000 nM and 321 nM.
On to `O=C(N[C@H]1CCC[C@@H]1Nc1cnc(C(F)(F)F)cn1)c1ccccc1C(F)(F)F` [Example 62, 2-(Trifluoromethyl)-N-[(1S,2S)-2-{[5-(trifluoromethyl)pyrazin-2-yl]amino}cyclopentyl]benzamide], for which the results for the IC50 at human orexin receptor 2 and at human orexin receptor 1 were more than 10000 nM and 457 nM, respectively.
In the case of `O=C(N[C@H]1CCC[C@@H]1Nc1cnc(C(F)(F)F)cn1)c1ncccc1C1CC1` [Example 63, 3-Cyclopropyl-N-[(1S,2S)-2-{[5-(trifluoromethyl)pyrazin-2-yl]amino}cyclopentyl]pyridine-2-carboxamide], the IC50 at human orexin receptor 2 was more than 10000 nM; at human orexin receptor 1, 450 nM.
Consider `O=C(N[C@H]1CCC[C@@H]1Nc1cnc(C(F)(F)F)cn1)c1c(F)ccc(F)c1-n1nccn1` [Example 64, 3,6-Difluoro-2-(2H-1,2,3-triazol-2-yl)-N-[(1S,2S)-2-{[5-(trifluoromethyl)pyrazin-2-yl]amino}cyclopentyl]benzamide], for which the IC50 on human orexin receptor 2 is more than 10000 nM; at human orexin receptor 1 it was 57 nM.
On to `O=C(N[C@H]1CCC[C@@H]1Nc1cnc(C(F)(F)F)cn1)c1ccccc1C(F)F` [Example 65, 2-(Difluoromethyl)-N-[(1S,2S)-2-{[5-(trifluoromethyl)pyrazin-2-yl]amino}cyclopentyl]benzamide], for which the half-maximal inhibitory concentration (IC50) was more than 10000 nM at human orexin receptor 2 and 797 nM at human orexin receptor 1.
Take `O=C(N[C@H]1CCC[C@@H]1Nc1cnc(C(F)(F)F)cn1)c1c(F)cccc1C1CC1` [Example 66, 2-Cyclopropyl-6-fluoro-N-[(1S,2S)-2-{[5-(trifluoromethyl)pyrazin-2-yl]amino}cyclopentyl]benzamide]: the IC50 at human orexin receptor 2 was more than 10000 nM; on human orexin receptor 1, 180 nM.
For `Cc1ccc(-n2nccn2)c(C(=O)N[C@H]2CCC[C@@H]2Nc2ccc(C(F)(F)F)nc2)c1` [Example 67, 5-Methyl-2-(2H-1,2,3-triazol-2-yl)-N-[(1S,2S)-2-{[6-(trifluoromethyl)pyridin-3-yl]amino}cyclopentyl]benzamide], in that order: more than 10000 nM and 891 nM.
`COc1cccc(OC)c1C(=O)N(C1CCC1)[C@H]1CCC[C@@H]1Nc1ccc(C(F)(F)F)cn1` [Example 68, N-Cyclobutyl-2,6-dimethoxy-N-[(1S,2S)-2-{[5-(trifluoromethyl)pyridin-2-yl]amino}cyclopentyl]benzamide]: the results for the IC50 at human orexin receptor 2 and at human orexin receptor 1 were 1610 nM and 297 nM, respectively.
For `O=C(N[C@H]1CCC[C@@H]1Nc1ccc(C(F)(F)F)cn1)c1ccccc1Cl` [Example 69, 2-Chloro-N-[(1S,2S)-2-{[5-(trifluoromethyl)pyridin-2-yl]amino}cyclopentyl]benzamide], in that order: more than 10000 nM and 321 nM.
For the compound `O=C(N[C@H]1CCC[C@@H]1Nc1ncc(C(F)(F)F)cn1)c1ccccc1Cl` [Example 70, 2-Chloro-N-[(1S,2S)-2-{[5-(trifluoromethyl)pyrimidin-2-yl]amino}cyclopentyl]benzamide], the IC50 on human orexin receptor 2 was more than 10000 nM; at human orexin receptor 1, 678 nM.
For the compound `COc1cccc(F)c1C(=O)N[C@H]1CCC[C@@H]1Nc1ccc(C(F)(F)F)cn1` [Example 71, 2-Fluoro-6-methoxy-N-[(1S,2S)-2-{[5-(trifluoromethyl)pyridin-2-yl]amino}cyclopentyl]benzamide], the values for the concentration for half-maximal inhibition (IC50) on human orexin receptor 2 and on human orexin receptor 1 were 7600 nM and 722 nM, respectively.
For the compound `O=C(N[C@H]1CCC[C@@H]1Nc1ccc(C(F)(F)F)cn1)c1c(F)cccc1F` [Example 72, 2,6-Difluoro-N-[(1S,2S)-2-{[5-(trifluoromethyl)pyridin-2-yl]amino}cyclopentyl]benzamide], the IC50 on human orexin receptor 2 is more than 10000 nM; on human orexin receptor 1 it was 479 nM.
For `CN(c1cnc(C(F)(F)F)cn1)[C@H]1CCC[C@@H]1NC(=O)c1ccccc1-n1nccn1` [Example 73, N-[(1S,2S)-2-{Methyl[5-(trifluoromethyl)pyrazin-2-yl]amino}cyclopentyl]-2-(2H-1,2,3-triazol-2-yl)benzamide], in that order: more than 10000 nM and 248 nM.
Take `CN(c1cnc(C(F)(F)F)cn1)[C@H]1CCC[C@@H]1NC(=O)c1cc(F)ccc1-n1nccn1` [Example 74, 5-Fluoro-N-[(1S,2S)-2-{methyl[5-(trifluoromethyl)pyrazin-2-yl]amino}cyclopentyl]-2-(2H-1,2,3-triazol-2-yl)benzamide]: the half-inhibitory concentration (IC50) at human orexin receptor 2 is more than 10000 nM; on human orexin receptor 1 it was 308 nM.
Turning to `CN(c1cnc(C(F)(F)F)cn1)[C@H]1CCC[C@@H]1NC(=O)c1c(F)cccc1-n1nccn1` [Example 75, 2-Fluoro-N-[(1S,2S)-2-{methyl[5-(trifluoromethyl)pyrazin-2-yl]amino}cyclopentyl]-6-(2H-1,2,3-triazol-2-yl)benzamide], the IC50 on human orexin receptor 2 was more than 10000 nM; on human orexin receptor 1, 279 nM.
As for `Cc1nc(C(F)(F)F)cnc1N[C@H]1CCC[C@@H]1NC(=O)c1ncccc1-n1nccn1` [Example 76, N-[(1S,2S)-2-{[3-Methyl-5-(trifluoromethyl)pyrazin-2-yl]amino}cyclopentyl]-3-(2H-1,2,3-triazol-2-yl)pyridine-2-carboxamide], the figures for the IC50 at human orexin receptor 2 and on human orexin receptor 1 were more than 10000 nM and 33 nM, respectively.
Regarding `C[C@]1(Nc2cnc(C(F)(F)F)cn2)CCC[C@@H]1NC(=O)c1ncccc1-n1nccn1` [Example 77, N-[(1S,2S)-2-Methyl-2-{[5-(trifluoromethyl)pyrazin-2-yl]amino}cyclopentyl]-3-(2H-1,2,3-triazol-2-yl)pyridine-2-carboxamide], the IC50 on human orexin receptor 2 is more than 10000 nM; at human orexin receptor 1, 12 nM.
Turning to `Cc1nc(C(F)(F)F)cnc1N[C@H]1CCC[C@@H]1NC(=O)c1ccccc1-n1nccn1` [Example 78, N-[(1S,2S)-2-{[3-Methyl-5-(trifluoromethyl)pyrazin-2-yl]amino}cyclopentyl]-2-(2H-1,2,3-triazol-2-yl)benzamide], the IC50 at human orexin receptor 2 is more than 10000 nM; on human orexin receptor 1, 19 nM.
For the compound `Cc1nc(C(F)(F)F)cnc1N[C@H]1CCC[C@@H]1NC(=O)c1ccccc1-c1ncccn1` [Example 79, N-[(1S,2S)-2-{[3-Methyl-5-(trifluoromethyl)pyrazin-2-yl]amino}cyclopentyl]-2-(pyrimidin-2-yl)benzamide], the IC50 at human orexin receptor 2 is more than 10000 nM; at human orexin receptor 1 it was 35 nM.
As to `Cc1nc(C(F)(F)F)cnc1N[C@H]1CCC[C@@H]1NC(=O)c1cc(F)ccc1-c1ncccn1` [Example 80, 5-Fluoro-N-[(1S,2S)-2-{[3-methyl-5-(trifluoromethyl)pyrazin-2-yl]amino}cyclopentyl]-2-(pyrimidin-2-yl)benzamide], the IC50 on human orexin receptor 2 is more than 10000 nM; at human orexin receptor 1 it was 35 nM.
For `C[C@]1(Nc2cnc(C(F)(F)F)cn2)CCC[C@@H]1NC(=O)c1ccccc1-n1nccn1` [Example 81, N-[(1S,2S)-2-Methyl-2-{[5-(trifluoromethyl)pyrazin-2-yl]amino}cyclopentyl]-2-(2H-1,2,3-triazol-2-yl)benzamide] the same measures were more than 10000 nM and 7 nM.
For the compound `CC1(Nc2cnc(C(F)(F)F)cn2)CCCC1NC(=O)c1ccccc1-n1nccn1` (stereo not shown) [Example 82, N-(2-Methyl-2-{[5-(trifluoromethyl)pyrazin-2-yl]amino}cyclopentyl)-2-(2H-1,2,3-triazol-2-yl)benzamide], the IC50 came out at 7540 nM on human orexin receptor 2 and 21 nM at human orexin receptor 1.
Take `C[C@@]1(Nc2cnc(C(F)(F)F)cn2)CCC[C@H]1NC(=O)c1ccccc1-n1nccn1` [Example 83, N-[(1R,2R)-2-Methyl-2-{[5-(trifluoromethyl)pyrazin-2-yl]amino}cyclopentyl]-2-(2H-1,2,3-triazol-2-yl)benzamide]: the IC50 at human orexin receptor 2 worked out at 1400 nM; at human orexin receptor 1, 2500 nM.
As for `C[C@]1(Nc2cnc(C(F)(F)F)cn2)CCC[C@@H]1NC(=O)c1cc(F)ccc1-n1nccn1` [Example 84, 5-Fluoro-N-[(1S,2S)-2-methyl-2-{[5-(trifluoromethyl)pyrazin-2-yl]amino}cyclopentyl]-2-(2H-1,2,3-triazol-2-yl)benzamide], the IC50 at human orexin receptor 2 was more than 10000 nM; at human orexin receptor 1, 22 nM.
